Results taken from patent publication EP0183129A1, “Quinolonecarboxylic acid derivatives” (KYORIN PHARMACEUTICAL CO., LTD., priority 1984, dated 1986).
Values after ≈ are worked out from the molar mass of the structure shown. Counter-ions that a name gives are not always drawn. Like-named read-outs stand apart in the source and are kept apart here.

Experiments:
[1] = system: S. pneumoniae 24; assay: In vitro antibacterial activity, MIC (clinical isolates); format: cell-based; conditions: Streptococcus pneumoniae
[2] = system: E. coli ML 4707; assay: In vitro antibacterial activity, MIC (standard strain); format: cell-based; conditions: Escherichia coli, ML4707
[3] = system: B. fragilis 25285; assay: as above; format: cell-based, Bacteroides fragilis; conditions: Bacteroides fragilis, 25285, B. fragilis 25285; 10^6 cells/ml; standard strain; read-out: MIC
[4] = system: S. pyogenes 4372; assay: In vitro antibacterial activity, MIC (clinical isolates); format: cell-based; conditions: Streptococcus pyogenes
[5] = system: Fusobacterium varium KYA 8501; assay: In vitro antibacterial activity, MIC (standard strain); format: cell-based; conditions: Fusobacterium varium, KYA8501, Fusobacterium varium KYA 8501; 10^6 cells/ml; standard strain; read-out: MIC
[6] = system: P. aeruginosa IFO 12689; assay: as above; format: cell-based, Pseudomonas aeruginosa; conditions: Pseudomonas aeruginosa, IFO12689; P. aeruginosa IFO 12689; 10^6 cells/ml; standard strain; read-out: MIC
[7] = system: S. pneumoniae 28; assay: In vitro antibacterial activity, MIC (clinical isolates); format: cell-based; conditions: Streptococcus pneumoniae, 10^6 cells/ml, clinical isolate
[8] = system: S. epidermidis IID 866; assay: In vitro antibacterial activity, MIC (standard strain); format: cell-based; conditions: Staphylococcus epidermidis
[9] = system: Alcaligenes faecalis 0104002; assay: as above; format: cell-based; conditions: Alcaligenes faecalis, 0104002, Alcaligenes faecalis 0104002; 10^6 cells/ml; standard strain; read-out: MIC
[10] = system: M. pneumoniae Mac.; assay: In vitro antibacterial activity against Mycoplasma, MIC; format: cell-based; conditions: Mycoplasmoides pneumoniae, 120 h; M. pneumoniae Mac.; no visible growth after incubation for 5 days; read-out: MIC
Description: Experiment-3 In vitro antibacterial activity against Mycoplasma

[11] = system: E. coli ATCC 10536; assay: In vitro antibacterial activity, MIC (standard strain); format: cell-based; conditions: Escherichia coli, ATCC10536
[12] = system: S. pneumoniae S-4288; assay: In vivo antibacterial activity against systemic infection in mice; set-up: species or system mice (ICR-S); conditions: Streptococcus pneumoniae, S4288; mice (ICR-S); oral, an hour after intraperitoneal infection; challenge dose 7.5 x 10^4 ~ 4.8 x 10^6 cfu/mouse; read-out: ED50 S. pneumoniae S-4288
Method: (§1) Experiment-2 In vivo antibacterial activity against systemic infection in mice (ICR-S)
(§2) The infections were produced by intraperitoneal injection of a suspension of the bacterial culture corresponding to the germ studied. The products were administered orally at an hour after the infection.

[13] = system: S. aureus Smith; assay: as above; set-up: species or system mice (ICR-S); conditions: Staphylococcus aureus, po, mice (ICR-S), an hour after intraperitoneal infection
Method: as §1, §2

[14] = system: Enterobacter cloacae IID 977; assay: In vitro antibacterial activity, MIC (standard strain); format: cell-based; conditions: Enterobacter cloacae, IID977, Enterobacter cloacae IID 977; 10^6 cells/ml; standard strain; read-out: MIC
[15] = system: S. faecalis IID 682; assay: as above; format: cell-based; conditions: Enterococcus faecalis, IID682
[16] = system: S. pneumoniae 3227; assay: In vitro antibacterial activity, MIC (clinical isolates); format: cell-based; conditions: Streptococcus pneumoniae
[17] = system: S. aureus IID 670 (Terajima); assay: In vitro antibacterial activity, MIC (standard strain); format: cell-based, Staphylococcus aureus; conditions: Staphylococcus aureus
[18] = system: Staphylococcus aureus 209 P; assay: as above; format: cell-based
[19] = system: S. pyogenes 3130; assay: In vitro antibacterial activity, MIC (clinical isolates); format: cell-based; conditions: Streptococcus pyogenes
[20] = system: P. aeruginosa IID 1210; assay: In vitro antibacterial activity, MIC (standard strain); format: cell-based; conditions: Pseudomonas aeruginosa, IID1210; P. aeruginosa IID 1210; 10^6 cells/ml; standard strain; read-out: MIC
[21] = system: Bacillus subtilis PCI 219; assay: as above; format: cell-based; conditions: PCI219
[22] = system: S. agalactiae 4470; assay: In vitro antibacterial activity, MIC (clinical isolates); format: cell-based; conditions: Streptococcus agalactiae; S. agalactiae 4470; 10^6 cells/ml; clinical isolate; read-out: MIC
[23] = system: Citrobacter freundii IID 976; assay: In vitro antibacterial activity, MIC (standard strain); format: cell-based; conditions: IID976; Citrobacter freundii IID 976; 10^6 cells/ml; standard strain; read-out: MIC
[24] = system: Morganella morganii IID 602; assay: as above; format: cell-based; conditions: IID602; Morganella morganii IID 602; 10^6 cells/ml; standard strain; read-out: MIC
[25] = system: S. pneumoniae 2054; assay: In vitro antibacterial activity, MIC (clinical isolates); format: cell-based; conditions: Streptococcus pneumoniae; S. pneumoniae 2054; 10^6 cells/ml; clinical isolate; read-out: MIC
[26] = system: Clostridium perfringens KYA 13123; assay: microbe, parasite or virus in culture; format: cell-based; conditions: KYA13123
[27] = system: Bacteroides fragilis GM 7000; assay: In vitro antibacterial activity, MIC (standard strain); format: cell-based; conditions: GM7000; Bacteroides fragilis GM 7000; 10^6 cells/ml; standard strain; read-out: MIC
[28] = system: Shigella sonnei IID 969; assay: as above; format: cell-based; conditions: IID969, 10^6 cells/ml
Method: Experiment-1 In vitro antibacterial activity
The in vitro antibacterial activity against gram-positive and gram-negative bacteria has been investivated.
The minimum inhibitory concentration (MIC) was determined in accordance with the method recommended by Japan Society of Chemotherapy.

[29] = S. pneumoniae 24, 10^6 cells/ml, clinical isolate, read-out: MIC
[30] = E. coli ML 4707, 10^6 cells/ml, standard strain, read-out: MIC
[31] = S. pyogenes 4372, 10^6 cells/ml, clinical isolate, read-out: MIC
[32] = IID866, S. epidermidis IID 866, 10^6 cells/ml, standard strain, read-out: MIC
[33] = E. coli ATCC 10536, 10^6 cells/ml, standard strain, read-out: MIC
[34] = challenge dose 6.0 x 10^5 cfu/mouse, read-out: ED50 S. aureus Smith
[35] = S. faecalis IID 682, 10^6 cells/ml, standard strain, read-out: MIC
[36] = S. pneumoniae 3227, 10^6 cells/ml, clinical isolate, read-out: MIC
[37] = IID670, S. aureus IID 670 (Terajima), 10^6 cells/ml, standard strain, read-out: MIC
[38] = Staphylococcus aureus 209 P, 10^6 cells/ml, standard strain, read-out: MIC
[39] = Bacillus subtilis PCI 219, 10^6 cells/ml, standard strain, read-out: MIC

SMILES | MIC [1, 29] | MIC [2, 30] | MIC [3] | MIC [4, 31] | MIC [5] | MIC [6] | MIC [7] | MIC [8, 32] | MIC [9] | MIC [10] | MIC [11, 33] | ED50 [12] | MIC [14] | MIC [20] | MIC [23] | MIC [24] | MIC [25] | MIC [26] | MIC [27] | MIC [28] | other results
CCNCC1CCN(c2c(F)cc3c(=O)c(C(=O)O)cn(C4CC4)c3c2F)C1 (stereo not drawn) [Example 2, l-Cyclopropyl-7-(3-ethylaminomethyl-l-pyrrolidinyl)-6,8-difluoro-l,4-dihydro-4-oxo-3-quinolinecarboxylic acid hydrochloride] | 0.05 µg/mL | 0.025 µg/mL | 0.78 µg/mL | 0.1 µg/mL | 1.56 µg/mL | 1.56 µg/mL | 0.05 µg/mL | 0.05 µg/mL | 0.1 µg/mL | 0.05 µg/mL | 0.025 µg/mL | 4.6 mg/kg | 0.1 µg/mL | 3.13 µg/mL | 0.05 µg/mL | 0.1 µg/mL | 0.1 µg/mL | 0.39 µg/mL | 1.56 µg/mL | 0.025 µg/mL | ED50 ([13]; challenge dose 5.5 x 10^5 cfu/mouse, n=5, read-out: ED50 against S. aureus Smith): 0.97 mg/kg; ED50 [13, 34]: 0.9 mg/kg; MIC [15, 35]: 0.2 µg/mL; MIC [16, 36]: 0.1 µg/mL; MIC [17, 37]: 0.025 µg/mL; MIC [18, 38]: 0.025 µg/mL; MIC ([19]; read-out: MIC): 0.05 µg/mL; MIC [21, 39]: 0.0125 µg/mL; MIC [22]: 0.1 µg/mL
CNCC1CCN(c2c(F)cc3c(=O)c(C(=O)O)cn(C4CC4)c3c2F)C1 (stereo not drawn) [Example 8, 1-Cyclopropyl-6,8-difluoro-1,4-dihydro-7-(3-methylaminomethyl-l-pyrrolidinyl)-4-oxo-3-quinolinecarboxylic acid hydrochloride] | 0.05 µg/mL | 0.025 µg/mL | 0.39 µg/mL | 0.05 µg/mL | 0.78 µg/mL | 1.56 µg/mL | 0.05 µg/mL | 0.025 µg/mL | 0.39 µg/mL | 0.05 µg/mL | 0.025 µg/mL | 16.1 mg/kg | 0.1 µg/mL | 1.56 µg/mL | 0.025 µg/mL | 0.2 µg/mL | 0.05 µg/mL | 0.39 µg/mL | 0.78 µg/mL | 0.0125 µg/mL | ED50 [13, 34]: 1.1 mg/kg; MIC [15, 35]: 0.1 µg/mL; MIC [17, 37]: 0.025 µg/mL; MIC [18, 38]: 0.025 µg/mL; MIC ([19]; read-out: MIC): 0.05 µg/mL; MIC ([21]; Bacillus subtilis): 0.0125 µg/mL
NCC1CCN(c2c(F)cc3c(=O)c(C(=O)O)cn(C4CC4)c3c2Cl)C1 (stereo not drawn) [Example 14, 8-Chloro-l-cyclopropyl-6-fluoro-l,4-dihydro-7-(3-aminomethyl-l-pyrrolidinyl)-4-oxo-3-quinolinecarboxylic acid hydrochloride] | 0.05 µg/mL | – | 0.05 µg/mL | 0.05 µg/mL | 0.39 µg/mL | 0.39 µg/mL | 0.05 µg/mL | – | 0.2 µg/mL | – | – | 10 mg/kg | 0.05 µg/mL | 0.39 µg/mL | 0.025 µg/mL | 0.05 µg/mL | 0.05 µg/mL | 0.05 µg/mL | 0.1 µg/mL | 0.0125 µg/mL | MIC [2]: 0.0125 µg/mL; MIC ([8]; IID866): 0.0125 µg/mL; MIC [11]: 0.0125 µg/mL; MIC [15, 35]: 0.05 µg/mL; MIC [16, 36]: 0.05 µg/mL; MIC ([17]; IID670): 0.0125 µg/mL; MIC ([18]; Staphylococcus aureus, 209P): 0.0125 µg/mL; MIC ([19]; read-out: MIC): 0.025 µg/mL; MIC ([21]; Bacillus subtilis): 0.0125 µg/mL; MIC [22]: 0.05 µg/mL
CCn1cc(C(=O)O)c(=O)c2cc(F)c(N3CCNCC3)cc21 [NFLX, Norfloxacin, reference compound] | – | 0.05 µg/mL (≈ 0.157 µM) | 25 µg/mL (≈ 78.3 µM) | – | 100 µg/mL (≈ 313 µM) | 0.78 µg/mL (≈ 2.44 µM) | 6.25 µg/mL (≈ 19.6 µM) | 0.39 µg/mL (≈ 1.22 µM) | 3.13 µg/mL (≈ 9.8 µM) | 3.13 µg/mL (≈ 9.8 µM) | 0.05 µg/mL (≈ 0.157 µM) | – | 0.1 µg/mL (≈ 0.313 µM) | 3.13 µg/mL (≈ 9.8 µM) | 0.05 µg/mL (≈ 0.157 µM) | 0.05 µg/mL (≈ 0.157 µM) | 6.25 µg/mL (≈ 19.6 µM) | 1.56 µg/mL (≈ 4.89 µM) | 25 µg/mL (≈ 78.3 µM) | 0.05 µg/mL (≈ 0.157 µM) | MIC [1]; 24: 12.5 µg/mL (≈ 39.1 µM); MIC [4]; 4372: 1.56 µg/mL (≈ 4.89 µM); MIC [15]: 1.56 µg/mL (≈ 4.89 µM); MIC [16]; 3227: 12.5 µg/mL (≈ 39.1 µM); MIC [17, 37]: 0.78 µg/mL (≈ 2.44 µM); MIC [18, 38]: 0.78 µg/mL (≈ 2.44 µM); MIC [19]: 1.56 µg/mL (≈ 4.89 µM); MIC [21, 39]: 0.1 µg/mL (≈ 0.313 µM); MIC [22]: 6.25 µg/mL (≈ 19.6 µM)
